A word on the IC50: it is the concentration at which inhibition is half-maximal. High values mean lower potency, low ones higher potency.

The target in test [1] is T1, GST-tagged KRAS G12D (2-169) (Homo sapiens, UniProt P01116, G12D).
T1 construct: GST-tagged KRAS^G12D (2-169, Reaction Biology, MSC-11-539); purchased Reaction Biology MSC-11-539 (KRAS G12D); MSC-11-502 (SOS1cat)
Put plainly: Nucleotide exchange assay (NEA), HTRF of SOS-mediated GTP-DY-647P1 binding. The settings on record: 5 nM GST-KRAS G12D, 20 nM SOScat, 150 nM GTP; compound 1 h at RT. In kind it is biochemical. An excerpt: This activity is tightly regulated by GTPase activating proteins (GAPs) and guanine nucleotide exchange factors (GEFs). GEFs, such as SOS1/2, activate Ras proteins by exchanging GDP for GTP, thus returning Ras to its active conformation (Simanshu, Nissley, & McCormick, 2017). […] Homogenous time resolved fluorescence (HTRF) was used to detect SOS-mediated binding of a fluorescent GTP analog, GTP-DY-647P1 (Jena Biosciences NU-820-647P1) to GST-tagged KRAS^G12D (2-169, Reaction Biology, MSC-11-539).
GST-tagged KRAS^G12D (2-169) and anti-GST MAb Tb Cryptate Gold (CisBio 61GSTTLB) were diluted into assay buffer (20 mM HEPES, pH 7.3, 150 mM NaCl, 5 mM MgCl2, 0.05% BSA 0.0025% NP40, 1 mM DTT) to prepare a 2.5× donor solution. 5× compound was added to the protein mixture and incubated for 1 h at RT. 2.5× acceptor solution containing SOS1cat (564-1049, Reaction Biology MSC-11-502) and GTP-DY-647P1 were then added to the donor KRAS mixture such that the final concentration of the reaction contained 5 nM GST-tagged KRAS^G12D (2-169), 20 nM SOScat, and 150 nM GTP. The reaction was monitored using at RT with the Envision multimode plate reader (Ex/Em 337/665, […]) up to 90 minutes at 5 minute intervals. Data was blanked to reactions without SOS1 and % inhibition was calculated such that DMSO only=0% and blank=100%. Curve fitting was done using a 4 parameter fit. NEA KRAS G12D ID50 (uM) values of selected compounds are depicted in Table 2 with compounds having a value<0.01 uM as ++++; >0.01 uM to 0.1 uM as +++; >0.1 uM to 1 uM as ++; >1 uM to 20 uM as +; and >20 uM as NA.
For orientation: TR-FRET usually uses a lanthanide donor and a delayed reading to cut background.

For the next test, the target named is T2, KRAS G12D/RAF1 (Homo sapiens, UniProt P01116, G12D).
T2 construct: KRAS (1-169) proteins were expressed in E. coli at 18° C; His6-MBP (N, cleaved yes); made in house; host or cells: E. coli
T2 sequence (P01116 1-169 isoform P01116-2 G12D): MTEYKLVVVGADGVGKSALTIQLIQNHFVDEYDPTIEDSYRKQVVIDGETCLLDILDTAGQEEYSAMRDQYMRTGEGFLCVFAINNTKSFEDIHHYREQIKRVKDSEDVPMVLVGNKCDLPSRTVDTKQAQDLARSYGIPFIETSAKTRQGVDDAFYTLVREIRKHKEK
Put plainly: Protein-protein interaction (PPI) HTRF assay KRAS G12D/RAF1. The settings on record: KRAS G12D/RAF1, GppNHp-loaded KRAS; 30 minutes pre-incubation. In kind it is binding. As to the method:
Biotinylated KRAS wt and KRAS G12DNV proteins were expressed and purified in conditions similar to those previously reported (Tran, et al., 2021) (Zhang, et al., 2020). Briefly, KRAS (1-169) proteins were expressed in E. coli at 18° C. with an upstream TEV cleavage site (ENLFYQS) followed an Avi tag sequence ([…]). KIRAS expression constructs contained both a His6 and maltose-binding protein (MBP) tags at the N-terminus for Ni-NTA column purification prior to overnight TEV cleavage and MBP column purification. The avi-tagged NRAS expression construct contained both a His6 tag and SUMO cleavage sige at the N-terminus for Ni-NTA column purification followed by His-ULP1 digestion overnight. All avi-tagged RAS proteins were dialyzed into buffer containing ATP, biotin, and BirA followed by purification over a second Ni-NTA column and then run over a size exclusion HiLoad™ 26/600 Superdex™ column in 20 mM HEPES, pH 7.5, 300 mM NaCl, 5 mM MgCl2, and 1 mM TCEP. Fractions containing the protein of interest were pooled, concentrated, and confirmed by intact mass spectrometry. To prepare ‘GTP’ loaded KRAS and NRAS, biotinylated KRAS or NRAS was nucleotide exchanged from GDP-bound protein to GppNHp-bound (Jena Biosciences, NU-401-50) protein in the presence of alkaline phosphatase and excess GppNHp as previously described and the resulting nucleotide content was confirmed by HPLC reverse phase analytical chromatography (Donohue, et al., 2019) (Tran, et al., 2021).
His-tagged RAF1 (52-131) was similarly expressed in E. coli at 18° C. overnight with an upstream TEV cleavage site. His-tagged RAF1 expression construct contained both a His6 and MBP tags at the N-terminus for Ni-NTA column purification followed by MBP-tagged TEV digestion overnight. RAF1 protein samples were further purified over a MBP column followed by a Ni-NTA column and a second MBP column. The fractions containing the protein of interest were pooled, concentrated, and further purified over a HiLoad™ 16/600 Superdex™ 75 pg size exclusion column into 20 mM HEPES, pH8.0, 200 mM NaCl, 5 mM TCEP.
When RAS proteins are in the active GTP-bound conformation, they bind the effector protein RAF1 at the N-terminus Ras-binding domain (RBD, residues 52-131) (Tran, et al., 2021). Homogenous time resolved fluorescence (HTRF) was used to monitor the interaction between wt or mutant KRAS and RAF1 or wt NRAS and RAFT. Compounds were assayed in the presence of KRAS G12D/V and RAF1 versus wt KRAS to assess activity against mutant and w.t. KRAS. Similarly, compounds were then assayed in the presence of w.t. NRAS and RAF1 to assess RAS isoform selectivity. In all assay formats, His-tagged RAF1 protein was incubated with the HTRF donor, anti-6His Tb Cryptate gold (Cisbio 61DB10RDF), and biotinylated RAS proteins were incubated with the HTRF acceptor, streptavidin-d2 (CisBio 610SADLA). The intensity of the fluorescence signal emitted is proportional to binding between the two proteins. The donor solution was prepared by mixing 16 nM His-tagged RAF1 in protein dilution buffer with 1:100 anti-6His Tb cryptate in PPI-Terbium detection buffer. 16 nM biotinylated RAS protein was diluted into protein dilution buffer (50 mM Tris-HCl pH 7.5, 150 mM NaCl, 0.1 mM MgCl2, 1 mM TCEP, 0.005% Tween20) and mixed with 1:2000 Streptavidin-d2 diluted in PPI-Terbium detection buffer (CisBio 61DB10RDF). 50× compound in DMSO was mixed with 16 nM KRAS-acceptor solution and incubated for 30 minutes at room temperature. After compound pre-incubation with KRAS, the RAF1 donor solution was added to the KRAS-acceptor solution and incubated for 1 hour at room temperature. The fluorescence signal emitted was monitored at 665 nm and 615 nm using an Envision multimode plate reader. The HTRF ratio (665/615) was calculated and normalized to 0% inhibition in the absence of compound and 100% inhibition in the presence of untagged RAF1 protein. […]

SMILES strings stand for the structures.

T1 sequence (P01116 2-169 isoform P01116-2 G12D): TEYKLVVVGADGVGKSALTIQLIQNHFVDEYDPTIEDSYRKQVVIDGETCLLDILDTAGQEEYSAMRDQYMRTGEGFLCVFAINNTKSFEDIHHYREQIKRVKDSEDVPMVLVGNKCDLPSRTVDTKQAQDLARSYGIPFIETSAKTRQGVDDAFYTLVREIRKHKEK

As to `O=C1NC(=O)[C@@H]2CN(c3nc(OC[C@@]45CCCN4C[C@H](F)C5)nc4c3CO[C@@]3(CCc5c(Cl)cccc53)C4)C[C@H]12` [Compound 33, (3aR,6aS)-5-[(7S)-4′-chloro-2-[[(2R,8S)-2-fluoro-1,2,3,5,6,7-hexahydropyrrolizin-8-yl]methoxy]spiro[5,8-dihydropyrano[4,3-d]pyrimidine-7,1′-indane]-4-yl]-3a,4,6,6a-tetrahydropyrrolo[3,4-c]pyrrole-1,3-dione], the results for the half-maximal inhibitory concentration (IC50) (in test [1]; at KRAS G12D/RAF1) were 100 to 1000 nM and 10000 to 100000 nM, respectively.
In the same order, the values of `CC(C)NC(=O)c1cc2n(n1)CCCN(c1nc(OC[C@@]34CCCN3C[C@H](F)C4)nc3c1CO[C@@]1(CCc4c(Cl)cccc41)C3)C2` [Compound 35, 5-[(7S)-4′-chloro-2-[[(2R,8S)-2-fluoro-1,2,3,5,6,7-hexahydropyrrolizin-8-yl]methoxy]spiro[5,8-dihydropyrano[4,3-d]pyrimidine-7,1′-indane]-4-yl]-N-isopropyl-4,6,7,8-tetrahydropyrazolo[1,5-a][1,4]diazepine-2-carboxamide] are 10 to 100 nM and above 100000 nM.
The corresponding values for `CN(C)C(=O)c1nn2c(c1Cl)CN(c1nc(OC[C@@]34CCCN3C[C@H](F)C4)nc3c1CO[C@@]1(CCc4c(Cl)cccc41)C3)CCC2` [Compound 36, 3-chloro-5-[(7S)-4′-chloro-2-[[(2R,8S)-2-fluoro-1,2,3,5,6,7-hexahydropyrrolizin-8-yl]methoxy]spiro[5,8-dihydropyrano[4,3-d]pyrimidine-7,1′-indane]-4-yl]-N,N-dimethyl-4,6,7,8-tetrahydropyrazolo[1,5-a][1,4]diazepine-2-carboxamide] are below 10 nM and 10000 to 100000 nM.
In the same order, the values of `CN(O)C(=O)c1cc2n(n1)CCCN(c1nc(OC[C@@]34CCCN3C[C@H](F)C4)nc3c1CO[C@@]1(CCc4c(Cl)cccc41)C3)C2` [Compound 37, 5-[(7S)-4′-chloro-2-[[(2R,8S)-2-fluoro-1,2,3,5,6,7-hexahydropyrrolizin-8-yl]methoxy]spiro[5,8-dihydropyrano[4,3-d]pyrimidine-7,1′-indane]-4-yl]-N-hydroxy-N-methyl-4,6,7,8-tetrahydropyrazolo[1,5-a][1,4]diazepine-2-carboxamide] are below 10 nM and above 100000 nM.
Take `O=C(c1cc2n(n1)CCCN(c1nc(OC[C@@]34CCCN3C[C@H](F)C4)nc3c1CO[C@@]1(CCc4c(Cl)cccc41)C3)C2)N1CCOCC1` [Compound 38, morpholino-[5-[(7S)-4′-chloro-2-[[(2R,8S)-2-fluoro-1,2,3,5,6,7-hexahydropyrrolizin-8-yl]methoxy]spiro[5,8-dihydropyrano[4,3-d]pyrimidine-7,1′-indane]-4-yl]-4,6,7,8-tetrahydropyrazolo[1,5-a][1,4]diazepin-2-yl]methanone; 2,2,2-trifluoroacetic acid]: the IC50 in test [1] was below 10 nM; on KRAS G12D/RAF1 it was 10000 to 100000 nM.
The corresponding values for `CN(C)C(=O)c1cc2n(n1)CCCN(c1nc(OC[C@@]34CCCN3C[C@H](F)C4)nc3c1COC1(CCCc4ccc(O)c(Cl)c41)C3)C2` (stereo partly drawn) [Compound 40, 5-[8′-chloro-7′-hydroxy-2-[[(2R,8S)-2-fluoro-1,2,3,5,6,7-hexahydropyrrolizin-8-yl]methoxy]spiro[5,8-dihydropyrano[4,3-d]pyrimidine-7,1′-tetralin]-4-yl]-N,N-dimethyl-4,6,7,8-tetrahydropyrazolo[1,5-a][1,4]diazepine-2-carboxamide] are 10 to 100 nM and above 100000 nM.
In the same order, the values of `N=S1(=O)CCN(C(=O)c2nn3c(c2Cl)CN(c2nc(OC[C@@]45CCCN4C[C@H](F)C5)nc4c2CO[C@@]2(CCc5c(Cl)cccc52)C4)CCC3)CC1` [Compound 52, [3-chloro-5-[(7S)-4′-chloro-2-[[(2R,8S)-2-fluoro-1,2,3,5,6,7-hexahydropyrrolizin-8-yl]methoxy]spiro[5,8-dihydropyrano[4,3-d]pyrimidine-7,1′-indane]-4-yl]-4,6,7,8-tetrahydropyrazolo[1,5-a][1,4]diazepin-2-yl]-(1-imino-1-oxo-1,4-thiazinan-4-yl)methanone] are below 10 nM and 10000 to 100000 nM.
The corresponding values for `CNCc1nn2c(c1Cl)CN(c1nc(OC[C@@]34CCCN3C[C@H](F)C4)nc3c1CO[C@@]1(CCc4c(Cl)cccc41)C3)CCC2` [Compound 59, 1-[3-chloro-5-[(7S)-4′-chloro-2-[[(2R,8S)-2-fluoro-1,2,3,5,6,7-hexahydropyrrolizin-8-yl]methoxy]spiro[5,8-dihydropyrano[4,3-d]pyrimidine-7,1′-indane]-4-yl]-4,6,7,8-tetrahydropyrazolo[1,5-a][1,4]diazepin-2-yl]-N-methyl-methanamine] are 10 to 100 nM and above 100000 nM.
With `CS(=O)(=O)c1cc2n(n1)CCCN(c1nc(OC[C@@]34CCCN3C[C@H](F)C4)nc3c1CO[C@@]1(CCc4c(Cl)cccc41)C3)C2` [Compound 62, (7S)-4′-chloro-2-[[(2R,8S)-2-fluoro-1,2,3,5,6,7-hexahydropyrrolizin-8-yl]methoxy]-4-(2-methylsulfonyl-4,6,7,8-tetrahydropyrazolo[1,5-a][1,4]diazepin-5-yl)spiro[5,8-dihydropyrano[4,3-d]pyrimidine-7,1′-indane]], the IC50 in test [1] was 10 to 100 nM; against KRAS G12D/RAF1, above 100000 nM.

The values are drawn from patent publication US11912723B2, “KRAS modulators and uses thereof” (Quanta Therapeutics, Inc., priority 2022, dated 2024).
